This is an account of results in patent publication US9956293B2, “Targeted therapeutics” (Madrigal Pharmaceuticals, Inc., priority 2014, dated 2018).

Data set [1] can be described thus: Tissue distribution of SDC-TRAPs in tumor-bearing mice: plasma, tumor, heart (Examples 14-15). Conditions: mouse, in vivo.
Description: Tissue Distribution Extraction Procedure for SDC-TRAP Tumor Samples
A 150 ng/mL solution of SDC-TRAP-0002 in methanol was prepared using an internal spiking solution (500 μg/mL SDC-TRAP-0002 in DMSO). Using the 10 mM stock solutions of the SDC-TRAP molecule and its Hsp90i binding moiety and effector moiety in DMSO, spiking solutions were prepared at 0.025, 0.05, 0.1, 0.5, 1, 5, 10, 50, 100, 250, and 500 μM in DMSO. 5 μL of each spiking solution was added to a 96-deep well plate.
Quality control standards were prepared from 5 μL of 0.1, 1, and 10 μM calibration standard spiking solution added in triplicate into 96-deep well plate and adding 50 μL of matrix (plasma or homogenized tumor).
To prepare test samples, test plasma was diluted as needed using blank plasma. Tumor samples were pulverized in liquid nitrogen, weighed, and homogenized in PBS at 5× volume to sample weight. 50 μL of unknown plasma or homogenized tumor sample was mixed with 5 μL of DMSO. The samples were extracted by precipitating calibration standards, QC standards, and unknown samples with 200 μL of internal standard solution. The samples were mixed by vortex at room temperature for approximately 1.5 minutes, then centrifuge at 2-8° C. 150 μL of supernatant was collected and 25 μL of water added. Samples were mixed and analyzed by LC-MS/MS.
Samples of plasma, heart and tumor were excised from a euthanized mouse, homogenized in PBS at 5 times tissue weight and diluted in 5 μL DMSO/50 μL sample. Prior to analysis, 55 μL samples and calibration standards were precipitated in 200 μL methanol in 96-well plates. Samples were mixed on a vortex mixer for 1.5 minutes at 1500 rpm at room temperature, then centrifuged at 4400 rpm for 10 minutes at 8° C. 150 μL of each supernatant was transferred to a well of a new 96-well plate, and 25 μL of water was added and mixed with the sample. […] For the analysis of samples from female SCID mice, a gradient of solvent A (water/0.1% formic acid) and B (acetonitrile/0.1% formic acid) was used as in Table A below.
For the next data set, the system named is HER2. Nature of the data set: HER2 degradation assay with BT-474 cell line (Example 12, FACS). It counts as cell-based. Conditions: Homo sapiens; BT-474 cells.

For orientation: Kp means the ratio of the level in a tissue or fluid to that in plasma or blood. In data set [1], `CCc1c2c(nc3ccc(OC(=O)N4CCN(c5ccc(-n6c(O)nnc6-c6cc(C(C)C)c(O)cc6O)cc5)CC4)cc13)-c1cc3c(c(=O)n1C2)COC(=O)C3(O)CC` (centres unmarked) [SDC-TRAP-0045, 4,11-diethyl-4-hydroxy-3,14-dioxo-3,4,12,14-tetrahydro-1H-pyrano[3′,4′:6,7]indolizino[1,2-b]quinolin-9-yl 4-(4-(3-(2,4-dihydroxy-5-isopropylphenyl)-5-hydroxy-4H-1,2,4-triazol-4-yl)phenyl)piperazine-1-carboxylate] gave a partition ratio (Kp) at 6 h of 1.35, a Kp at 12 h of 8.02, a partition ratio (Kp) at […] of 0.00624 and a concentration at 6 h of 1880 nM. In data set [1], this molecule returned a concentration at 12 h of 141 nM and a concentration at 24 h of 11.3 nM.
In data set [1], `CCc1c2c(nc3ccc(OC(=O)N4CCN(Cc5ccc(-n6c(O)nnc6-c6cc(C(C)C)c(O)cc6O)cc5)CC4)cc13)-c1cc3c(c(=O)n1C2)COC(=O)C3(O)CC` (centres unmarked) [SDC-TRAP-0046, 4,11-diethyl-4-hydroxy-3,14-dioxo-3,4,12,14-tetrahydro-1H-pyrano[3′,4′:6,7]indolizino[1,2-b]quinolin-9-yl 4-(4-(3-(2,4-dihydroxy-5-isopropylphenyl)-5-hydroxy-4H-1,2,4-triazol-4-yl)benzyl)piperazine-1-carboxylate] gave a Kp at 6 h of 0.844, a partition ratio (Kp) at 12 h of 2.2, a Kp at 24 h of 40.3 and a partition ratio (Kp) at […] of 0.0193. In data set [1], this molecule had a concentration at 6 h of 5880 nM, a concentration at 12 h of 2370 nM and a concentration at 24 h of 54.2 nM.
As a reminder, the IC50 is the concentration needed to halve the response being measured. Higher therefore signals lower potency. In turn, `CC(C)c1cc(-c2nnc(O)n2-c2ccc(CN3CCN(C(=O)c4cnc(C(=O)Nc5cccc6c5CN(C5CCC(=O)NC5=O)C6=O)cn4)CC3)c(F)c2)c(O)cc1O` (centres unmarked) [SDC-TRAP-0160, 5-(4-(4-(3-(2,4-dihydroxy-5-isopropylphenyl)-5-hydroxy-4H-1,2,4-triazol-4-yl)-2-fluorobenzyl)piperazine-1-carbonyl)-N-(2-(2,6-dioxopiperidin-3-yl)-1-oxoisoindolin-4-yl)pyrazine-2-carboxamide] came in with an IC50 in the data set with HER2 of 0.239 µM.
The molecule `CCNC(=O)c1nnc(-c2cc(C(C)C)c(O)cc2O)n1-c1ccc(CN2CCC(C(=O)N[C@H](C(=O)Nc3cccc4c3CN(C3CCC(=O)NC3=O)C4=O)C(C)C)CC2)cc1` (stereo partly drawn) [SDC-TRAP-0163, 1-(4-(3-(2,4-dihydroxy-5-isopropylphenyl)-5-(ethylcarbamoyl)-4H-1,2,4-triazol-4-yl)benzyl)-N-((2S)-1-((2-(2,6-dioxopiperidin-3-yl)-1-oxoisoindolin-4-yl)amino)-3-methyl-1-oxobutan-2-yl)piperidine-4-carboxamide] displayed an IC50 with HER2 of 0.885 µM.
Same read-out and setting: the same measure for `CCNC(=O)c1nnc(-c2cc(C(C)C)c(O)cc2O)n1-c1ccc(CN2CCC(C(=O)N3CCC[C@H]3C(=O)Nc3cccc4c3CN(C3CCC(=O)NC3=O)C4=O)CC2)cc1` (stereo partly drawn) [SDC-TRAP-0164, 5-(2,4-dihydroxy-5-isopropylphenyl)-4-(4-((4-((2S)-2-((2-(2,6-dioxopiperidin-3-yl)-1-oxoisoindolin-4-yl)carbamoyl)pyrrolidine-1-carbonyl)piperidin-1-yl)methyl)phenyl)-N-ethyl-4H-1,2,4-triazole-3-carboxamide]: 0.493 µM; for `CCNC(=O)c1nnc(-c2cc(C(C)C)c(O)cc2O)n1-c1ccc(C(=O)N[C@@H](C)C(=O)Nc2cccc3c2CN(C2CCC(=O)NC2=O)C3=O)cc1` (stereo partly drawn) [SDC-TRAP-0166, 5-(2,4-dihydroxy-5-isopropylphenyl)-4-(4-(((2S)-1-((2-(2,6-dioxopiperidin-3-yl)-1-oxoisoindolin-4-yl)amino)-1-oxopropan-2-yl)carbamoyl)phenyl)-N-ethyl-4H-1,2,4-triazole-3-carboxamide]: greater than 5 µM; for `CC(C)c1cc(-c2nnc(O)n2-c2ccc(CN3CCN(c4cnc(C(=O)Nc5cccc6c5CN(C5CCC(=O)NC5=O)C6=O)cn4)CC3)c(F)c2)c(O)cc1O` (centres unmarked) [SDC-TRAP-0170, 5-(4-(4-(3-(2,4-dihydroxy-5-isopropylphenyl)-5-hydroxy-4H-1,2,4-triazol-4-yl)-2-fluorobenzyl)piperazin-1-yl)-N-(2-(2,6-dioxopiperidin-3-yl)-1-oxoisoindolin-4-yl)pyrazine-2-carboxamide]: 0.296 µM.
Still for that read-out and setting: as for `CC(C)c1cc(-c2nnc(O)n2-c2ccc(CN3CCN(C(=O)c4ccc(COC(=O)Nc5cccc6c5CN(C5CCC(=O)NC5=O)C6=O)cc4F)CC3)c(F)c2)c(O)cc1O` (centres unmarked) [SDC-TRAP-0174, 4-(4-(4-(3-(2,4-dihydroxy-5-isopropylphenyl)-5-hydroxy-4H-1,2,4-triazol-4-yl)-2-fluorobenzyl)piperazine-1-carbonyl)-3-fluorobenzyl (2-(2,6-dioxopiperidin-3-yl)-1-oxoisoindolin-4-yl)carbamate], the figure is 0.693 µM; as for `CC(C)c1cc(-c2nnc(O)n2-c2ccc(N3CCN(C(=O)c4ccc(COC(=O)Nc5cccc6c5CN(C5CCC(=O)NC5=O)C6=O)cc4)CC3)nc2)c(O)cc1O` (centres unmarked) [SDC-TRAP-0175, 4-(4-(5-(3-(2,4-dihydroxy-5-isopropylphenyl)-5-hydroxy-4H-1,2,4-triazol-4-yl)pyridin-2-yl)piperazine-1-carbonyl)benzyl (2-(2,6-dioxopiperidin-3-yl)-1-oxoisoindolin-4-yl)carbamate], 2.63 µM.
`CCNC(=O)c1nnc(-c2cc(C(C)C)c(O)cc2O)n1-c1ccc(C(=O)N2CCN(C(=O)c3ccc(COC(=O)Nc4cccc5c4CN(C4CCC(=O)NC4=O)C5=O)cc3)CC2)cc1` (centres unmarked) [SDC-TRAP-0177, 4-(4-(4-(3-(2,4-dihydroxy-5-isopropylphenyl)-5-(ethylcarbamoyl)-4H-1,2,4-triazol-4-yl)benzoyl)piperazine-1-carbonyl)benzyl (2-(2,6-dioxopiperidin-3-yl)-1-oxoisoindolin-4-yl)carbamate] displayed a half-maximal inhibitory concentration (IC50) in the data set on HER2 of 4.35 µM.
For the molecule `CCNC(=O)c1nnc(-c2cc(C(C)C)c(O)cc2O)n1-c1ccc(C(=O)N[C@H](C(=O)Nc2cccc3c2CN(C2CCC(=O)NC2=O)C3=O)C(C)C)cc1` (stereo partly drawn) [SDC-TRAP-0188, 5-(2,4-dihydroxy-5-isopropylphenyl)-4-(4-(((2S)-1-((2-(2,6-dioxopiperidin-3-yl)-1-oxoisoindolin-4-yl)amino)-3-methyl-1-oxobutan-2-yl)carbamoyl)phenyl)-N-ethyl-4H-1,2,4-triazole-3-carboxamide], 3.95 µM corresponded to half-maximal inhibition with HER2 (IC50). This IC50 and that of the molecule before are within 1.5-fold of each other.
Consider `CCNC(=O)c1nnc(-c2cc(C(C)C)c(O)cc2O)n1-c1ccc(C(=O)N[C@@H](CC(C)C)C(=O)Nc2cccc3c2CN(C2CCC(=O)NC2=O)C3=O)cc1` (stereo partly drawn) [SDC-TRAP-0189, 5-(2,4-dihydroxy-5-isopropylphenyl)-4-(4-(((2S)-1-((2-(2,6-dioxopiperidin-3-yl)-1-oxoisoindolin-4-yl)amino)-4-methyl-1-oxopentan-2-yl)carbamoyl)phenyl)-N-ethyl-4H-1,2,4-triazole-3-carboxamide], for which, in the data set on HER2, the 50% inhibitory concentration (IC50) came to 1.09 µM.
The molecule `CCNC(=O)c1nnc(-c2cc(C(C)C)c(O)cc2O)n1-c1ccc(C(=O)N2CCC[C@H]2C(=O)Nc2cccc3c2CN(C2CCC(=O)NC2=O)C3=O)cc1` (stereo partly drawn) [SDC-TRAP-0190, 5-(2,4-dihydroxy-5-isopropylphenyl)-4-(4-((2S)-2-((2-(2,6-dioxopiperidin-3-yl)-1-oxoisoindolin-4-yl)carbamoyl)pyrrolidine-1-carbonyl)phenyl)-N-ethyl-4H-1,2,4-triazole-3-carboxamide] had an IC50 with HER2 greater than 5 µM.
In the case of `CCNC(=O)c1nnc(-c2cc(C(C)C)c(O)cc2O)n1-c1ccc(Oc2ccc(C(=O)N[C@@H](CC(C)C)C(=O)Nc3cccc4c3CN(C3CCC(=O)NC3=O)C4=O)cc2)cc1` (stereo partly drawn) [SDC-TRAP-0191, 5-(2,4-dihydroxy-5-isopropylphenyl)-4-(4-(4-(((2S)-1-((2-(2,6-dioxopiperidin-3-yl)-1-oxoisoindolin-4-yl)amino)-4-methyl-1-oxopentan-2-yl)carbamoyl)phenoxy)phenyl)-N-ethyl-4H-1,2,4-triazole-3-carboxamide], the IC50 in the data set on HER2 was determined as 1.18 µM.
Same read-out and setting: as for `CCNC(=O)c1nnc(-c2cc(C(C)C)c(O)cc2O)n1-c1ccc(Oc2ccc(C(=O)N3CCC[C@H]3C(=O)Nc3cccc4c3CN(C3CCC(=O)NC3=O)C4=O)cc2)cc1` (stereo partly drawn) [SDC-TRAP-0192, 5-(2,4-dihydroxy-5-isopropylphenyl)-4-(4-(4-((2S)-2-((2-(2,6-dioxopiperidin-3-yl)-1-oxoisoindolin-4-yl)carbamoyl)pyrrolidine-1-carbonyl)phenoxy)phenyl)-N-ethyl-4H-1,2,4-triazole-3-carboxamide], the figure is greater than 5 µM; as for `CCNC(=O)c1nnc(-c2cc(C(C)C)c(O)cc2O)n1-c1ccc(CN2CCC(C(=O)N[C@@H](CC(C)C)C(=O)Nc3cccc4c3CN(C3CCC(=O)NC3=O)C4=O)CC2)cc1` (stereo partly drawn) [SDC-TRAP-0193, 1-(4-(3-(2,4-dihydroxy-5-isopropylphenyl)-5-(ethylcarbamoyl)-4H-1,2,4-triazol-4-yl)benzyl)-N-((2S)-1-((2-(2,6-dioxopiperidin-3-yl)-1-oxoisoindolin-4-yl)amino)-4-methyl-1-oxopentan-2-yl)piperidine-4-carboxamide], 0.266 µM.
Take `CC(C)c1cc(-c2nnc(O)n2-c2ccc(CN3CCN(C(=O)Cc4ccc(COC(=O)Nc5cccc6c5CN(C5CCC(=O)NC5=O)C6=O)cc4)CC3)c(F)c2)c(O)cc1O` (centres unmarked) [SDC-TRAP-0194, 4-(2-(4-(4-(3-(2,4-dihydroxy-5-isopropylphenyl)-5-hydroxy-4H-1,2,4-triazol-4-yl)-2-fluorobenzyl)piperazin-1-yl)-2-oxoethyl)benzyl (2-(2,6-dioxopiperidin-3-yl)-1-oxoisoindolin-4-yl)carbamate]: in the data set with HER2, the concentration for half-maximal inhibition (IC50) was 2.12 µM.
`CCNC(=O)c1nnc(-c2cc(C(C)C)c(O)cc2O)n1-c1ccc(CN2CCC(C(=O)N(C)CCCOC(=O)Nc3cccc4c3CN(C3CCC(=O)NC3=O)C4=O)CC2)cc1` (centres unmarked) [SDC-TRAP-0231, 3-(1-(4-(3-(2,4-dihydroxy-5-isopropylphenyl)-5-(ethylcarbamoyl)-4H-1,2,4-triazol-4-yl)benzyl)-N-methylpiperidine-4-carboxamido)propyl (2-(2,6-dioxopiperidin-3-yl)-1-oxoisoindolin-4-yl)carbamate] had an IC50 with HER2 of 0.696 µM.
